# Assay results from paper PMC8113213, “Physiologically based kinetic modelling based prediction of in vivo rat and human acetylcholinesterase (AChE) inhibition upon exposure to diazinon” (Archives of Toxicology, 2021).
# Marks after values point to notes of the source that are not given here.
# Experiments:
# [1] = tested on: RBC AChE; assay: TEF-coded PBK model-based reverse dosimetry, predicted in vivo RBC AChE inhibition, human
# Excerpt: The PBK model for DZN was developed based on the model from Poet et al. ([2004]) with some modifications for both rat and human. The model contains a submodel for the metabolite DZO and was defined to include compartments for rapidly perfused tissue, slowly perfused tissue, liver, fat and blood for both the parent compound DZN and its metabolite DZO. The model also contains a compartment to describe the urinary elimination of the metabolites IMHP and DAP (sum of DEP and DETP). In the currently developed model, oral exposure was included since we aimed at defining a POD for risk assessment of exposure via food and drinking water, and intravenous (IV) exposure was included for model evaluation. The fractional absorption (fa) was set equal to literature reported values, being 0.8 in rat (Poet et al. [2004]) and 0.66 in human (Garfitt et al. [2002]) and applied to the overall dose. […]
# The physiological parameters for rat and human were obtained from Brown et al. ([1997]) as well as Gearhart et al. ([1990]), and are summarised in Table 1. […] The Km values determined in vitro were assumed to be equal to in vivo Km values. […]
# [2] = assay type: in vitro ADME; details: intestinal microsomes, data not shown
# Method: The physiological parameters for rat and human were obtained from Brown et al. ([1997]) as well as Gearhart et al. ([1990]), and are summarised in Table 1. […] The kinetic parameters for biotransformation of DZN in rat and human were obtained by conducting in vitro liver microsomal/plasma incubations as described in the section “In vitro metabolic incubations for deriving kinetic parameters”. […] The first-pass metabolism of DZN by the intestine was not taken into account in the current model because the metabolic conversion in the intestine derived from the conversion in incubations with intestinal microsomes upon scaling to the whole organ, appeared less than 5% of that obtained in a similar way for the liver (data not shown). […] To scale the in vitro Vmax values to the in vivo situation, the following scaling factors were used; 35 mg microsomal protein/g liver for rat hepatic metabolism (Medinsky et al. [1994]), 32 mg microsomal protein/g liver for human hepatic metabolism (Barter et al. [2007]), 77 mg plasma protein/ml plasma (total plasma protein concentration) for human plasma metabolism, and 60 mg plasma protein/ml plasma (total plasma protein concentration) for rat plasma metabolism. Plasma volume in rat and human were assumed as 55% of their corresponding blood volume (O'Neil [1999]). The Km values determined in vitro were assumed to be equal to in vivo Km values. […]
# [3] = tested on: RBC AChE; assay: TEF-coded PBK model-based reverse dosimetry, predicted in vivo RBC AChE inhibition, rat; details: for Predicted BMDL10 for rat pups: adult rat predicted BMDL10 corrected by factor 2 (Padilla et al. 2004)
# Excerpt: The PBK model for DZN was developed based on the model from Poet et al. ([2004]) with some modifications for both rat and human. The model contains a submodel for the metabolite DZO and was defined to include compartments for rapidly perfused tissue, slowly perfused tissue, liver, fat and blood for both the parent compound DZN and its metabolite DZO. The model also contains a compartment to describe the urinary elimination of the metabolites IMHP and DAP (sum of DEP and DETP). In the currently developed model, oral exposure was included since we aimed at defining a POD for risk assessment of exposure via food and drinking water, and intravenous (IV) exposure was included for model evaluation. The fractional absorption (fa) was set equal to literature reported values, being 0.8 in rat (Poet et al. [2004]) and 0.66 in human (Garfitt et al. [2002]) and applied to the overall dose. The absorption of DZN from the stomach into the liver was described using a two-compartment gastrointestinal tract model as reported by Poet et al. ([2004]), with a first-order rate constant for absorption of DZN from the stomach into the liver (KaS) of 0.1 /h for rat and 0.32/h for human (Poet et al. [2004]), a first-order rate constant for transfer of DZN from the stomach into the intestine (KsI) of 0.48/h for both rat and human, a first-order rate constant for absorption DZN from the intestine into the liver (KaI) of 0.59/h for both rat and human, (Poet et al. [2004]), and Ke values for the elimination of IMHP or DAP (sum of DEP and DETP) into the urine amounting to Ke IMHP = 0.29/h, Ke DEP = 0.29 /h and Ke DETP = 0.29/h for rat (Poet et al. [2004]), and Ke IMHP = 12/h, Ke DEP = 12 /h and Ke DETP = 12/h for human (Garfitt et al. [2002]; Poet et al. [2004]).
# The physiological parameters for rat and human were obtained from Brown et al. ([1997]) as well as Gearhart et al. ([1990]), and are summarised in Table 1. […] The kinetic parameters for biotransformation of DZN in rat and human were obtained by conducting in vitro liver microsomal/plasma incubations as described in the section “In vitro metabolic incubations for deriving kinetic parameters”. […] The first-pass metabolism of DZN by the intestine was not taken into account in the current model because the metabolic conversion in the intestine derived from the conversion in incubations with intestinal microsomes upon scaling to the whole organ, appeared less than 5% of that obtained in a similar way for the liver (data not shown). […] The Km values determined in vitro were assumed to be equal to in vivo Km values. […]
compound,measurement,setting,value
"CCOP(=S)(OCC)Oc1cc(C)nc(C(C)C)n1 [DZN, O,O-diethyl O-2-isopropyl-6-methylpyrimidin-4-yl phosphorothioate]",predicted BMDL10 for human lower than that for rat,[1],6 fold
same,"metabolic conversion in the intestine scaled to the whole organ, relative to that for the liver",[2],less than 5%
same,corrected POD (rat pups) higher than POD used by the EPA,[3],2.1 fold
same,predicted rat BMDL10 higher than reported BMDL10 for inhibition of RBC AChE,[3],2.6 fold
same,Predicted BMDL10 for rat pups,[3],6.3 mg/kg bw
same,Predicted BMDL10 for rat pups,[3]; listed as Diazinon,6.3^a mg/kg bw
